Structures are written as SMILES.

Holding throughout (assay type): in vivo
The test system of series [1] is Beet Armyworm (Spodoptera exigua, LAPHEG) ("BAW"). Description: Bioassay on Beet Armyworm (BAW), 128-well diet tray assay. The settings on record: 168 h, 50 μg/cm^2 on artificial diet, second instar larvae, five to seven days, 25° C., average of eight wells, read-out: BAW % Control (or Mortality) rating. On the procedure: (§1) Certain molecules disclosed in this document were tested against BAW and CEW using procedures described in the following examples. In the reporting of the results, the “BAW & CL Rating Table” was used (See Table Section).
Bioassays on BAW were conducted using a 128-well diet tray assay. one to five second instar BAW larvae were placed in each well (3 mL) of the diet tray that had been previously filled with 1 mL of artificial diet to which 50 μg/cm^2 of the test compound (dissolved in 50 μL of 90:10 acetone-water mixture) had been applied (to each of eight wells) and then allowed to dry. Trays were covered with a clear self-adhesive cover and held at 25° C., 14:10 light-dark for five to seven days. Percent mortality was recorded for the larvae in each well; activity in the eight wells was then averaged. The results are indicated in the table entitled “Table ABC: Biological Results” (See Table Section).

The subject of series [2] is Cabbage Looper (Trichoplusia ni, TRIPNI) ("CL"). The series can be described thus: Bioassay on Cabbage Looper (CL), 128-well diet tray assay. The settings on record: 168 h, read-out: CL % Control (or Mortality) rating. On the procedure: as §1
Bioassays on CL were conducted using a 128-well diet tray assay. one to five second instar CL larvae were placed in each well (3 mL) of the diet tray that had been previously filled with 1 mL of artificial diet to which 50 μg/cm^2 of the test compound (dissolved in 50 μL of 90:10 acetone-water mixture) had been applied (to each of eight wells) and then allowed to dry. Trays were covered with a clear self-adhesive cover and held at 25° C., 14:10 light-dark for five to seven days. Percent mortality was recorded for the larvae in each well; activity in the eight wells was then averaged. The results are indicated in the table entitled “Table ABC: Biological Results” (See Table Section).

For series [3], the system named is Yellow Fever Mosquito (Aedes aegypti, AEDSAE) ("YFM"). The series can be described thus: Bioassay on Yellow Fever Mosquito (YFM), 96-well plate larval assay. The settings on record: about 1 day-old larvae, from 4000 ppm master plate, scored on mortality after 3 days. The protocol:
Certain molecules disclosed in this document were tested against YFM using procedures described in the following paragraph. In the reporting of the results, the “YFM Rating Table” was used (See Table Section).
Master plates containing 400 μg of a molecule dissolved in 100 μL of dimethyl sulfoxide (DMSO) (equivalent to a 4000 ppm solution) are used. A master plate of assembled molecules contains 15 μL per well. To this plate, 135 μL of a 90:10 water:acetone mixture is added to each well. A robot (Biomek® NXP Laboratory Automation Workstation) is programmed to dispense 15 μL aspirations from the master plate into an empty 96-well shallow plate (“daughter” plate). There are 6 reps (“daughter” plates) created per master. The created daughter plates are then immediately infested with YFM larvae.
The day before plates are to be treated, mosquito eggs are placed in Millipore water containing liver powder to begin hatching (4 g. into 400 mL). After the daughter plates are created using the robot, they are infested with 220 μL of the liver powder/larval mosquito mixture (about 1 day-old larvae). After plates are infested with mosquito larvae, a non-evaporative lid is used to cover the plate to reduce drying. Plates are held at room temperature for 3 days prior to grading. After 3 days, each well is observed and scored based on mortality.

With `O=C(Nc1ccc(-c2ncn(-c3ccc(OC(F)(F)F)cc3)n2)cc1)c1ccccc1COC1CCOCC1` [F23, 2-(((Tetrahydro-2H-pyran-4-yl)oxy)methyl)-N-(4-(1-(4-(trifluoromethoxy)phenyl)-1H-1,2,4-triazol-3-yl)phenyl)benzamide], the mortality at 50 µg/cm2 in series [1] and in series [2] was 50 to 100% throughout. Further, in series [3], the “YFM % Control (or Mortality) rating” value is reported as “D (No activity noticed in this bioassay)”.
Consider `CC(C)c1cccc(C(=O)Nc2ccc(-c3ncn(-c4ccc(C(F)(F)F)cc4)n3)cc2)c1` [F24, 3-Isopropyl-N-(4-(1-(4-(trifluoromethyl)phenyl)-1H-1,2,4-triazol-3-yl)phenyl)benzamide], for which the mortality at 50 µg/cm2 in series [1] is 0%; in series [2], 50 to 100%. In addition, the “YFM % Control (or Mortality) rating” value in series [3] is given as “D (No activity noticed in this bioassay)”.
For the compound `O=C(Nc1ccc(-c2ncn(-c3ccc(OC(F)(F)F)cc3)n2)cc1)c1ccc(-c2ccccc2)cc1` [F25, N-(4-(1-(4-(trifluoromethoxy)phenyl)-1H-1,2,4-triazol-3-yl)phenyl)-[1,1′-biphenyl]-4-carboxamide], the mortality at 50 µg/cm2 in series [1] and in series [2] was 0% each time. The “YFM % Control (or Mortality) rating” value in series [3] is “D (No activity noticed in this bioassay)”.
For `COc1ccc(C(=O)Nc2ccc(-c3ncn(-c4ccc(OC(F)(F)F)cc4)n3)cc2)cc1` [F26, 4-Methoxy-N-(4-(1-(4-(trifluoromethoxy)phenyl)-1H-1,2,4-triazol-3-yl)phenyl)benzamide], the mortality at 50 µg/cm2 in series [1] and in series [2] was 50 to 100% throughout. Further, the “YFM % Control (or Mortality) rating” value in series [3] was “D (No activity noticed in this bioassay)”.
As to `O=C(NCc1ccc(-c2ncn(-c3ccc(OC(F)(F)F)cc3)n2)cc1)c1ccccc1-c1ccccc1` [F27, N-(4-(1-(4-(Trifluoromethoxy)phenyl)-1H-1,2,4-triazol-3-yl)benzyl)biphenyl-2-carboxamide], the mortality at 50 µg/cm2 in series [1] is 0 to 50%; in series [2] it was 50 to 100%. The “YFM % Control (or Mortality) rating” value in series [3] is “B (More than 0 - Less than 80)”.
Taken in the same sequence, the figures for `CC(C)c1cccc(C(=O)NCc2ccc(-c3ncn(-c4ccc(OC(F)(F)F)cc4)n3)cc2)c1` [F28, 3-Isopropyl-N-(4-(1-(4-(trifluoromethoxy)phenyl)-1H-1,2,4-triazol-3-yl)benzyl)benzamide] were 50 to 100%, 0% and “D (No activity noticed in this bioassay)”.
Take `Cc1ccc(C(=O)NCc2ccc(-c3ncn(-c4ccc(OC(F)(F)F)cc4)n3)cc2)c(C)c1` [F29, 2,4-Dimethyl-N-(4-(1-(4-(trifluoromethoxy)phenyl)-1H-1,2,4-triazol-3-yl)benzyl)benzamide]: the mortality at 50 µg/cm2 in series [1] and in series [2] was 0% in each case. Also, the “YFM % Control (or Mortality) rating” value in series [3] is reported as “D (No activity noticed in this bioassay)”.
As for `Cc1ccccc1-c1ccccc1C(=O)NCc1ccc(-c2ncn(-c3ccc(OC(F)(F)F)cc3)n2)cc1` [F30, 2′-Methyl-N-(4-(1-(4-(trifluoromethoxy)phenyl)-1H-1,2,4-triazol-3-yl)benzyl)biphenyl-2-carboxamide], the mortality at 50 µg/cm2 in series [1] was 0 to 50%; in series [2], 50 to 100%. Further, in series [3], the “YFM % Control (or Mortality) rating” value is listed as “B (More than 0 - Less than 80)”.
Taken in the same sequence, the figures for `CC(C)c1ccccc1C(=O)NCc1ccc(-c2ncn(-c3ccc(OC(F)(F)F)cc3)n2)cc1` [F31, 2-Isopropyl-N-(4-(1-(4-(trifluoromethoxy)phenyl)-1H-1,2,4-triazol-3-yl)benzyl)benzamide] were 0%, 0% and “D (No activity noticed in this bioassay)”.
For `O=C(NCc1ccc(-c2ncn(-c3ccc(OC(F)(F)F)cc3)n2)cc1)c1ccccc1` [F32, N-(4-(1-(4-(trifluoromethoxy)phenyl)-1H-1,2,4-triazol-3-yl)benzyl)benzamide], in that order: 0%, 0% and “D (No activity noticed in this bioassay)”.
For `Cc1ccc(-c2ccccc2C(=O)NCc2ccc(-c3ncn(-c4ccc(OC(F)(F)F)cc4)n3)cc2)c(C)c1` [F33, 2′,4′-Dimethyl-N-(4-(1-(4-(trifluoromethoxy)phenyl)-1H-1,2,4-triazol-3-yl)benzyl)biphenyl-2-carboxamide], in that order: 0 to 50%, 50 to 100% and “A (80-100)”.
`Cc1ccc(Cl)cc1-c1ccccc1C(=O)NCc1ccc(-c2ncn(-c3ccc(OC(F)(F)F)cc3)n2)cc1` [F34, 5′-Chloro-2′-methyl-N-(4-(1-(4-(trifluoromethoxy)phenyl)-1H-1,2,4-triazol-3-yl)benzyl)biphenyl-2-carboxamide]: the mortality at 50 µg/cm2 in series [1] is 0%; in series [2] it was 50 to 100%. The “YFM % Control (or Mortality) rating” value in series [3] was “D (No activity noticed in this bioassay)”.
For `Cc1ccc(C)c(-c2ccccc2C(=O)NCc2ccc(-c3ncn(-c4ccc(OC(F)(F)F)cc4)n3)cc2)c1` [F35, 2′,5′-Dimethyl-N-(4-(1-(4-(trifluoromethoxy)phenyl)-1H-1,2,4-triazol-3-yl)benzyl)biphenyl-2-carboxamide], in that order: 0 to 50%, 50 to 100% and “B (More than 0 - Less than 80)”.
On to `Cc1cccc(-c2ccccc2C(=O)NCc2ccc(-c3ncn(-c4ccc(OC(F)(F)F)cc4)n3)cc2)c1C` [F36, 2′,3′-Dimethyl-N-(4-(1-(4-(trifluoromethoxy)phenyl)-1H-1,2,4-triazol-3-yl)benzyl)biphenyl-2-carboxamide], for which the mortality at 50 µg/cm2 in series [1] was 0 to 50%; in series [2] it was 50 to 100%. Also, the “YFM % Control (or Mortality) rating” value in series [3] is given as “A (80-100)”.
For `Cc1cccc(C)c1-c1ccccc1C(=O)NCc1ccc(-c2ncn(-c3ccc(OC(F)(F)F)cc3)n2)cc1` [F37, 2′,6′-Dimethyl-N-(4-(1-(4-(trifluoromethoxy)phenyl)-1H-1,2,4-triazol-3-yl)benzyl)biphenyl-2-carboxamide], in that order: 0 to 50%, 50 to 100% and “A (80-100)”.
For `COc1ccc(-c2ccccc2C(=O)NCc2ccc(-c3ncn(-c4ccc(OC(F)(F)F)cc4)n3)cc2)c(C)c1` [F38, 4′-Methoxy-2′-methyl-N-(4-(1-(4-(trifluoromethoxy)phenyl)-1H-1,2,4-triazol-3-yl)benzyl)biphenyl-2-carboxamide], in that order: 0%, 0% and “D (No activity noticed in this bioassay)”.
Taken in the same sequence, the figures for `Cc1ccc(C(C)C)c(C(=O)NCc2ccc(-c3ncn(-c4ccc(OC(F)(F)F)cc4)n3)cc2)c1` [F39, 2-Isopropyl-5-methyl-N-(4-(1-(4-(trifluoromethoxy)phenyl)-1H-1,2,4-triazol-3-yl)benzyl)benzamide] were 0%, 0% and “D (No activity noticed in this bioassay)”.
As to `Cc1cc(F)ccc1-c1ccccc1C(=O)NCc1ccc(-c2ncn(-c3ccc(OC(F)(F)F)cc3)n2)cc1` [F40, 4′-Fluoro-2′-methyl-N-(4-(1-(4-(trifluoromethoxy)phenyl)-1H-1,2,4-triazol-3-yl)benzyl)biphenyl-2-carboxamide], the mortality at 50 µg/cm2 in series [1] and in series [2] was 50 to 100% each time. Moreover, in series [3], the “YFM % Control (or Mortality) rating” value is given as “D (No activity noticed in this bioassay)”.

For orientation: mortality means the share of the test organisms that died.

The values are drawn from patent US9533961B2, “Molecules having certain pesticidal utilities, and intermediates, compositions, and processes related thereto” (priority 2014, dated 2017).
